Measurements taken from patent publication US20120053182A1, “METHODS OF ALLEVIATING OR TREATING SIGNS AND/OR SYMPTOMS ASSOCIATED WITH MODERATE TO SEVERE PARKINSON'S DISEASE” (SCHERING CORPORATION, priority 2009, published 2012).
Read-outs that look alike come from different tables or passages of the source.

How the values were obtained:
[1] = tested on: patients suffering from Parkinson's disease; experiment: Clinical trial in patients with moderate to severe Parkinson's disease receiving L-dopa therapy; assay type: in vivo, human
Protocol: A clinical trial was carried out using 253 patients suffering from Parkinson's disease and receiving L-dopa therapy.
These patients were continued on their L-dopa therapy and randomized to receive in addition either a placebo (n=49), a composition administered orally BID in an amount providing 1 mg of the compound of Formula I (n=49), a composition administered orally BID in an amount providing 2 mg of the compound of Formula I (n=49), a composition administered orally BID in an amount providing 5 mg of the compound of Formula I (n=49), or a composition administered orally BID in an amount providing 10 mg of the compound of Formula I (n=57). This treatment was continued for 12 weeks while the patients kept a diary recording the “Off-time” periods, “On-time” periods (recording whether “On-time” was accompanied by dyskinesia or troubling dyskinesia) and their total amount of sleep time. These patients were also interviewed clinically and were evaluated as well in accordance with the UPDRS rating scale, as well as for when, and the duration of, sleep attacks experienced during the study. Blood chemistry was followed clinically at regular intervals.
Moreover, with reference to FIG. 3, assessment of patients was made using the Unified Parkinson's Disease Rating Scale (UPDRS) following several weeks of administration. […] With reference to FIG. 3, for example, UPDRS, part III scores were improved by showing a decrease of at least about 3 points below the baseline score at the start of the study.

[2] = Pharmacokinetics after oral administration to healthy human volunteers; assay type: in vivo; conditions: composition providing about 5 mg, serum; for AUC: human, po, 5 mg, healthy human volunteers
[3] = Bioavailability by age or sex in healthy human volunteers; assay type: in vivo; conditions: composition used in the patient study
[4] = tested on: akathisia induced by administration of Haldol; experiment: Haldol-induced akathisia in healthy volunteers; assay type: in vivo, human; conditions: composition providing about 10 mg, FIG. 4
From the text: It is believed that a composition which provides an effective amount of the compound of Formula I will also prevent feelings of restlessness, of example, Haldol-induced akathesia.

[5] = target: T1, A2a receptors (Homo sapiens, UniProt P29274); experiment: PET scan receptor site occupancy study in healthy human volunteers; assay type: in vivo
T1 construct: PET scans of a human brain were obtained; from tissue; host or cells: brain of living healthy human volunteers (in vivo PET)
T1 sequence (P29274 whole entry): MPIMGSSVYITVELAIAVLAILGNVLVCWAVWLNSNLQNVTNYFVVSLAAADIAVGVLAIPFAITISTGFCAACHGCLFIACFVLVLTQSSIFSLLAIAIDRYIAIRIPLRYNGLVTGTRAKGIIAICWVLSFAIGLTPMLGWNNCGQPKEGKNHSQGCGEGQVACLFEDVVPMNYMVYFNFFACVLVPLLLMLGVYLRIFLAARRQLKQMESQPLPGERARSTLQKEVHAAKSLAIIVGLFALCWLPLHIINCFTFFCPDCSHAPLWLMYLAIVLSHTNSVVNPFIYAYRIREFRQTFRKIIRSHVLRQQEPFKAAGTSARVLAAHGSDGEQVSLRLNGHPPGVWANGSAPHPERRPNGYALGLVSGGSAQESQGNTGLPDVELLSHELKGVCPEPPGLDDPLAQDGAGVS
Protocol: In a separate study with healthy human volunteers, and with reference to FIG. 5, PET scans of a human brain were obtained after IV administration to a subject of a composition intravenous administration of the compound of Formula II which had been labeled with ^11C-radio-isotope and then after an interval subsequent intravenous administered the compound of Formula I.
This study was carried out using 18 subjects. Capsules containing a composition providing the compound of Formula I (unlabelled) in amounts of 10, 50, or 200 mg were also administered to a subset of test subjects prior to injection of the radio-labeled compound of Formula II. Using the information obtained from the PET scan regarding the extent, location, and inhibition of radiotracer binding permitted calculation of binding potentials for the compound of Formula I. The test subjects were also evaluated for plasma levels of the compound of Formula I during the study. […] These studies also indicate that the compound of Formula I has a selectivity for the A2a receptor site of 20,000:1 relative to binding at A1, A2b, and A3 receptor sites. This study is consistent with a therapeutic level of plasma concentration being provided by administering a composition orally which provides a human subject to whom it is administered with from at least about 2 mg of the compound of Formula I to about 10 mg of the compound of Formula I and preferably 5 mg of the compound of Formula I. It is believed that BID dosing of a composition providing from about 5 mg to about 50 mg of the compound of Formula I will provide at least about 50% receptor site occupancy for at least about 12 hours/day in at least about 80% of the human population and at least about 80% receptor site occupancy for at least about 18 hours/day in at least about 75% of the population.

[6] = at least about 2 mg BID oral, 12 weeks, with L-dopa, patient diary

UPDRS part IV scores ([1]; amount sufficient to maintain steady state serum level of at least about 50 ng/ml): not accompanied by an increase
proportion of "On-time" with dyskinesia or other motor complications ([1]; at least about 2 mg BID oral, 12 weeks, with L-dopa): no rise
Cmax ([2]; average across healthy human volunteers): 112 to 130 ng/mL
AUC ([2]; AUC to time serum level drops below detectable limit, read-out: AUC(tf)): 336 to 457 ng·h/mL
AUC ([2]; read-out: AUC values measured from t=0 to 1 hr.): 352 to 478 ng·h/mL
differences in bioavailability (AUC or Cmax) between groups divided by age or sex [3]: no statistically significant differences
receptor site occupancy ([5]; BID dosing about 5 mg to about 50 mg, for at least about 12 hours/day in at least about 80% of the human population): at least 50%
receptor site occupancy ([5]; BID dosing about 5 mg to about 50 mg, for at least about 18 hours/day in at least about 75% of the population): at least 80%
receptor occupancy at 0.05 µg/mL ([5]; human, plasma concentrations in excess of about 50 ng/ml, believed to be Emax): ~90%
plasma concentration at 50% receptor site occupancy ([5]; on average, PET, humans): 6 ng/mL
receptor site occupancy ([5]; plasma concentration levels exceeding about 25 ng/mL in humans): high level of receptor site occupancy
SMILES: COCCOc1ccc(N2CCN(CCN3N=CC4c5nc(-c6ccco6)nn5C(N)=NC43)CC2)cc1 (centres unmarked) [compound of Formula I]
reports of common adverse events: Parkinsonism; somnolence; dyskinesia ([1]; 1, 2, 5 or 10 mg BID oral, 12 weeks, versus placebo group): no more frequency than was reported in the placebo group
decrease of UPDRS part III score below baseline ([1]; amount sufficient to maintain steady state serum level of at least about 50 ng/ml, FIG. 3, 2 hours post dose): at least 3 points
periods of "Off-time" [1, 6]: decrease
periods of "On-time" [1, 6]: improvement
average daily patient "Off-time" periods ([1]; at least about 5 mg BID oral): decrease
average daily patient "On-time" periods ([1]; at least about 5 mg BID oral): increase
objectional side effects, for example, dyskinesia, somnolence, or insomnia ([1]; at least about 5 mg BID oral): not accompanied by objectional side effects
UPDRS score ([1]; at least about 5 mg BID oral, throughout the course of the study): improvement in UPDRS score which is maintained throughout the course of the study
induction of sleep attacks ([1]; effective amount, patient assessment by clinicians): not associated with induction of sleep attacks
patient sleep patterns (total daily sleep time) ([1]; from about 2 mg BID to about 10 mg BID, FIG. 2): does not significantly adversely effect patient sleep patterns
suppression of Haldol-induced akathisia [4]: successful in suppressing akathisia
brain distribution by PET scan ([5]; human brain, 11C-labelled compound of Formula II as radiotracer): high concentrations of the compound of Formula I in regions of the brain known to contain high levels of A2a receptors
